# Source: US20260262643A1, “HERBICIDAL BENZOXAZINES” (FMC CORPORATION, priority 2022, published 2026)
# Assays:
# rice = test: Test D flooded paddy test; format: in vivo, Oryza sativa; conditions: 250 g ai/ha, applied to paddy water, visual rating after 13 to 14 days, scale 0 to 100 (0 no effect, 100 complete control)
# How it was run: (§1)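 Seedlings reached the 2-leaf stage, then pots were flooded to 3 cm over the soil surface. Compound was applied into the water, depth was maintained, and plants stayed in the greenhouse 13 to 14 days before visual scoring (0–100) relative to controls.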
# blackgrass [1] = test: Test C preemergence; format: in vivo, Alopecurus myosuroides
# How it was run: (§2)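 Soil-applied (pre) and foliar (post, 1–2 leaf, 2–10 cm) sprays; surfactant-containing non-phytotoxic solvent vehicle; loam/sand substrate. Readout: visual % control at 10 d, greenhouse, versus untreated.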
# ryegrass, Italian [2] = test: Test C postemergence; format: in vivo, Lolium multiflorum; conditions: 10 days, 0 to 100 scale (0 no effect, 100 complete control)
# How it was run: as §2
# soybean [3] = test: Test C postemergence; format: in vivo, Glycine max; conditions: 10 days, 0 to 100 scale (0 no effect, 100 complete control)
# How it was run: as §2
# sedge, umbrella = test: Test D flooded paddy test; format: in vivo, Cyperus difformis; conditions: 250 g ai/ha, applied to paddy water, visual rating after 13 to 14 days, scale 0 to 100 (0 no effect, 100 complete control)
# How it was run: as §1
# kochia [4] = test: Test C postemergence; format: in vivo, Bassia scoparia; conditions: 10 days, 0 to 100 scale (0 no effect, 100 complete control)
# How it was run: as §2
# ducksalad = test: Test D flooded paddy test; format: in vivo, Heteranthera limosa; conditions: 250 g ai/ha, applied to paddy water, visual rating after 13 to 14 days, scale 0 to 100 (0 no effect, 100 complete control)
# How it was run: as §1
# oat, wild [5] = test: Test C postemergence; format: in vivo, Avena fatua; conditions: 10 days, 0 to 100 scale (0 no effect, 100 complete control)
# How it was run: as §2
# soybean [6] = test: Test C preemergence; format: in vivo, Glycine max
# How it was run: as §2
# wheat [7] = test: Test C postemergence; format: in vivo, Triticum aestivum; conditions: 10 days, 0 to 100 scale (0 no effect, 100 complete control)
# How it was run: as §2
# barnyardgrass [8] = test: Test D flooded paddy test; format: in vivo, Echinochloa crus-galli; conditions: 250 g ai/ha, applied to paddy water, visual rating after 13 to 14 days, scale 0 to 100 (0 no effect, 100 complete control)
# How it was run: as §1
# kochia [9] = test: Test C preemergence; format: in vivo, Bassia scoparia
# How it was run: as §2
# blackgrass [10] = test: Test C postemergence; format: in vivo, Alopecurus myosuroides; conditions: 10 days, 0 to 100 scale (0 no effect, 100 complete control)
# How it was run: as §2
# pigweed, palmer [11] = test: Test C preemergence; format: in vivo, Amaranthus palmeri
# How it was run: as §2
# ragweed [12] = test: Test C postemergence; format: in vivo, Ambrosia artemisiifolia; conditions: 10 days, 0 to 100 scale (0 no effect, 100 complete control)
# How it was run: as §2
# barnyardgrass [13] = test: Test C preemergence; format: in vivo, Echinochloa crusgalli
# How it was run: as §2
# pigweed, palmer [14] = test: Test C postemergence; format: in vivo, Amaranthus palmeri; conditions: 10 days, 0 to 100 scale (0 no effect, 100 complete control)
# How it was run: as §2
# ragweed [15] = test: Test C preemergence; format: in vivo, Ambrosia artemisiifolia
# How it was run: as §2
# green foxtail [16] = test: Test C preemergence; format: in vivo, Setaria viridis
# How it was run: as §2
# corn [17] = test: Test C preemergence; format: in vivo, Zea mays
# How it was run: as §2
# oat, wild [18] = test: Test C preemergence; format: in vivo, Avena fatua
# How it was run: as §2
# green foxtail [19] = test: Test C postemergence; format: in vivo, Setaria viridis; conditions: 10 days, 0 to 100 scale (0 no effect, 100 complete control)
# How it was run: as §2
# wheat [20] = test: Test C preemergence; format: in vivo, Triticum aestivum
# How it was run: as §2
# corn [21] = test: Test C postemergence; format: in vivo, Zea mays; conditions: 10 days, 0 to 100 scale (0 no effect, 100 complete control)
# How it was run: as §2
# barnyardgrass [22] = test: Test C postemergence; format: in vivo, Echinochloa crusgalli; conditions: 10 days, 0 to 100 scale (0 no effect, 100 complete control)
# How it was run: as §2
# ryegrass, Italian [23] = test: Test C preemergence; format: in vivo, Lolium multiflorum
# How it was run: as §2
# horseweed = test: Test C postemergence; format: in vivo, Erigeron canadensis; conditions: 10 days, 0 to 100 scale (0 no effect, 100 complete control)
# How it was run: as §2
# galium = test: Test C postemergence; format: in vivo, Galium aparine; conditions: 10 days, 0 to 100 scale (0 no effect, 100 complete control)
# How it was run: as §2
# [24] = 500 g ai/ha, preemergence, 0 to 100 scale (0 no effect, 100 complete control)
# [25] = Preemergence, 125 g ai/ha, 0 to 100 scale, 0 no effect, 100 complete control
structure (smiles),measurement,setting,value
Cc1ncn(-c2ccc(C)c(C(=O)N3CC(C(F)(F)F)Oc4c(Cl)cccc43)c2)n1 (stereo not shown) [Compound 349],"Plant response rating, Rice (Flood)",rice,0
same,Blackgrass plant response rating,blackgrass [1]; [24],80
same,"Plant response rating, Blackgrass",blackgrass [1]; [25],50
same,"Plant response rating, Ryegrass, Italian","ryegrass, Italian [2]; 500 g ai/ha, postemergence",80
same,"Plant response rating, Ryegrass, Italian","ryegrass, Italian [2]; Postemergence, 125 g ai/ha",50
same,"Plant response rating, Soybean","soybean [3]; 500 g ai/ha, postemergence",100
same,"Plant response rating, Soybean","soybean [3]; Postemergence, 125 g ai/ha",100
same,"Plant response rating, Sedge, Umbrella (Flood)","sedge, umbrella",95
same,"Plant response rating, Kochia","kochia [4]; 500 g ai/ha, postemergence",90
same,"Plant response rating, Kochia","kochia [4]; Postemergence, 125 g ai/ha",80
same,"Plant response rating, Ducksalad (Flood)",ducksalad,0
same,"Plant response rating, Oat, Wild","oat, wild [5]; 500 g ai/ha, postemergence",70
same,"Plant response rating, Oat, Wild","oat, wild [5]; Postemergence, 125 g ai/ha",30
same,Soybean plant response rating,soybean [6]; [24],100
same,"Plant response rating, Soybean",soybean [6]; [25],50
same,"Plant response rating, Wheat","wheat [7]; 500 g ai/ha, postemergence",80
same,"Plant response rating, Wheat","wheat [7]; Postemergence, 125 g ai/ha",30
same,"Plant response rating, Barnyardgrass (Flood)",barnyardgrass [8],0
same,Kochia plant response rating,kochia [9]; [24],90
same,"Plant response rating, Kochia",kochia [9]; [25],80
same,"Plant response rating, Blackgrass","blackgrass [10]; 500 g ai/ha, postemergence",100
same,"Plant response rating, Blackgrass","blackgrass [10]; Postemergence, 125 g ai/ha",90
same,"Pigweed, Palmer plant response rating","pigweed, palmer [11]; [24]",100
same,"Plant response rating, Pigweed, Palmer","pigweed, palmer [11]; [25]",100
same,"Plant response rating, Ragweed","ragweed [12]; 500 g ai/ha, postemergence",40
same,"Plant response rating, Ragweed","ragweed [12]; Postemergence, 125 g ai/ha",30
same,Barnyardgrass plant response rating,barnyardgrass [13]; [24],100
same,"Plant response rating, Barnyardgrass",barnyardgrass [13]; [25],70
same,"Plant response rating, Pigweed, Palmer","pigweed, palmer [14]; 500 g ai/ha, postemergence",90
same,"Plant response rating, Pigweed, Palmer","pigweed, palmer [14]; Postemergence, 125 g ai/ha",50
same,Ragweed plant response rating,ragweed [15]; [24],80
same,"Plant response rating, Ragweed",ragweed [15]; [25],20
same,"Foxtail, Green plant response rating",green foxtail [16]; [24],100
same,"Plant response rating, Foxtail, Green",green foxtail [16]; [25],100
same,Corn plant response rating,corn [17]; [24],60
same,"Plant response rating, Corn",corn [17]; [25],40
same,"Oat, Wild plant response rating","oat, wild [18]; [24]",90
same,"Plant response rating, Oat, Wild","oat, wild [18]; [25]",20
same,"Plant response rating, Foxtail, Green","green foxtail [19]; 500 g ai/ha, postemergence",90
same,"Plant response rating, Foxtail, Green","green foxtail [19]; Postemergence, 125 g ai/ha",70
same,Wheat plant response rating,wheat [20]; [24],70
same,"Plant response rating, Wheat",wheat [20]; [25],20
same,"Plant response rating, Corn","corn [21]; 500 g ai/ha, postemergence",90
same,"Plant response rating, Corn","corn [21]; Postemergence, 125 g ai/ha",80
same,"Plant response rating, Barnyardgrass","barnyardgrass [22]; 500 g ai/ha, postemergence",90
same,"Plant response rating, Barnyardgrass","barnyardgrass [22]; Postemergence, 125 g ai/ha",30
same,"Ryegrass, Italian plant response rating","ryegrass, Italian [23]; [24]",100
same,"Plant response rating, Ryegrass, Italian","ryegrass, Italian [23]; [25]",100
same,"Plant response rating, Horseweed","horseweed; 500 g ai/ha, postemergence",50
same,"Plant response rating, Horseweed","horseweed; Postemergence, 125 g ai/ha",10
same,"Plant response rating, Galium","galium; 500 g ai/ha, postemergence",100
same,"Plant response rating, Galium","galium; Postemergence, 125 g ai/ha",100
